Experimental findings from ChEMBL document CHEMBL3045970, “Development of a New Acaricide, Fenpyroximate” (J Pestic Sci, 1995) are described below.

This data set is described as follows: Half life in diluvial and volcanic ash soils under upland laboratory conditions. The data set is classed as physicochemical.

With `Cc1nn(C)c(Oc2ccccc2)c1/C=N/OCc1ccc(C(=O)OC(C)(C)C)cc1` [FENPYROXYMATE], the t1/2 stood at 26.3 days.
